Test results published in US20250376464A1 (Trawsfynydd Therapeutics, Inc., priority 2022, published 2025).

Biological target: SARS-CoV2-Mpro (Severe acute respiratory syndrome coronavirus 2 (2019-nCoV) (SARS-CoV-2), UniProt P0DTD1)
Assay: Primary assay: SARS-CoV2-Mpro enzymatic activity inhibition
Type: biochemical
Conditions: enzyme preincubated with compound for 20 min; slope of linear portion of signal
Procedure: Example A. Primary Assay Used to Determine Potency of SARS-CoV2-Mpro Enzymatic Activity Inhibition
• (1) Deliver 2× Enzyme • (2) Deliver buffer into No Enzyme wells • (3) Deliver compounds in 100% DMSO by using Acoustic technology (Echo550; nanoliter range) • (4) Incubate for 20 min • (5) Deliver 2× Substrate to initiate the reaction • (6) Spin & shake, start measuring in EnVision at rt; 5 min interval for 25 (2 hours) • (7) Analyze data by taking slope (signal/time) of linear portion of measurement • (8) Slope is calculated by using Excel, and curve fits are performed using Prism software.
The % inhibition was then used to calculate the IC50 values. The IC50 values are shown in Table A, wherein “A” corresponds to IC50<10.0 nm, “B” corresponds to 10.0 nm≤IC50<50.0 nm, “C” corresponds to 50.0 nm≤IC50<100.0 nm, “D” corresponds to 100.0 nm≤IC50<500.0 nm, and “E” corresponds to 500.0 nm≤IC50<1000.0 nm, and “F” corresponds to 1000.0 nm≤IC50.

SMILES | IC50
CC(C)(C)[C@H](NC(=O)C(F)(F)F)C(=O)N1C[C@H]2C([C@H]1C(=O)N[C@H](C#N)Cn1c(=O)[nH]c3ccccc31)C2(C)C (stereo in doubt) [Compound 301, (1R,2S,5S)—N—((S)-1-cyano-2-(2-oxo-2,3-dihydro-1H-benzo[d]imidazol-1-yl)ethyl)-3-((S)-3,3-dimethyl-2-(2,2,2-trifluoroacetamido)butanoyl)-6,6-dimethyl-3-azabicyclo[3.1.0]hexane-2-carboxamide] | ≥ 1000 nM
CC(C)(C)[C@H](NC(=O)C(F)(F)F)C(=O)N1C[C@H]2[C@H]([C@H]1C(=O)N[C@H](C#N)CC1C(=O)Nc3ccc(Cl)cc31)C2(C)C (stereo partly drawn) [Compound 218, (1S,2S,5S)-N-[(1S)-2-(5-chloro-2-oxo-indolin-3-yl)-1-cyano-ethyl]-3-[(2S)-3,3-dimethyl-2-[(2,2,2-trifluoroacetyl)amino]butanoyl]-6,6-dimethyl-3-azabicyclo[3.1.0]hexane-2-carboxamide] | 10 to 50 nM
CC(C)(C)[C@H](NC(=O)C(F)(F)F)C(=O)N1C[C@H]2[C@H]([C@H]1C(=O)N[C@H](C#N)CC1C(=O)Nc3cc(Cl)ccc31)C2(C)C (stereo partly drawn) [Compound 219, (1S,2S,5S)-N-[(1S)-2-(6-chloro-2-oxo-indolin-3-yl)-1-cyano-ethyl]-3-[(2S)-3,3-dimethyl-2-[(2,2,2-trifluoroacetyl)amino]butanoyl]-6,6-dimethyl-3-azabicyclo[3.1.0]hexane-2-carboxamide] | 10 to 50 nM
Cc1ccc2c(c1)C(C[C@@H](C#N)NC(=O)[C@@H]1[C@H]3[C@H](CN1C(=O)[C@@H](NC(=O)C(F)(F)F)C(C)(C)C)C3(C)C)C(=O)N2 (stereo partly drawn) [Compound 220, (1S,2S,5S)-N-[(1S)-1-cyano-2-(5-methyl-2-oxo-indolin-3-yl)ethyl]-3-[(2S)-3,3-dimethyl-2-[(2,2,2-trifluoroacetyl)amino]butanoyl]-6,6-dimethyl-3-azabicyclo[3.1.0]hexane-2-carboxamide] | 10 to 50 nM
COc1ccc2c(c1)C(C[C@@H](C#N)NC(=O)[C@@H]1[C@H]3[C@H](CN1C(=O)[C@@H](NC(=O)C(F)(F)F)C(C)(C)C)C3(C)C)C(=O)N2 (stereo partly drawn) [Compound 221, (1S,2S,5S)-N-[(1S)-1-cyano-2-(5-methoxy-2-oxo-indolin-3-yl)ethyl]-3-[(2S)-3,3-dimethyl-2-[(2,2,2-trifluoroacetyl)amino]butanoyl]-6,6-dimethyl-3-azabicyclo[3.1.0]hexane-2-carboxamide] | < 10 nM
COc1ccc2c(c1)NC(=O)C2C[C@@H](C#N)NC(=O)[C@@H]1[C@H]2[C@H](CN1C(=O)[C@@H](NC(=O)C(F)(F)F)C(C)(C)C)C2(C)C (stereo partly drawn) [Compound 222, (1S,2S,5S)-N-[(1S)-1-cyano-2-(6-methoxy-2-oxo-indolin-3-yl)ethyl]-3-[(2S)-3,3-dimethyl-2-[(2,2,2-trifluoroacetyl)amino]butanoyl]-6,6-dimethyl-3-azabicyclo[3.1.0]hexane-2-carboxamide] | 10 to 50 nM
CC(C)(C)[C@H](NC(=O)C(F)(F)F)C(=O)N1C[C@H]2[C@H]([C@H]1C(=O)NC(C#N)CC1C(=O)Nc3ccccc31)C2(C)C (stereo partly drawn) [Compound 226, (1S,2S,5S)—N-[1-cyano-2-(2-oxoindolin-3-yl)ethyl]-3-[(2S)-3,3-dimethyl-2-[(2,2,2-trifluoroacetyl)amino]butanoyl]-6,6-dimethyl-3-azabicyclo[3.1.0]hexane-2-carboxamide] | < 10 nM
CC(C)CCN(C(=O)[C@@H]1[C@@H]2[C@H](CN1C(=O)[C@@H](NC(=O)C(F)(F)F)C(C)(C)C)C2(C)C)[C@H](C#N)C[C@@H]1C(=O)Nc2ccccc21 [Compound 247, (1R,2S,5S)-N-[(1S)-1-cyano-2-(2-oxoindolin-3-yl)ethyl]-3-[(2S)-3,3-dimethyl-2-[(2,2,2-trifluoroacetyl)amino]butanoyl]-N-isopentyl-6,6-dimethyl-3-azabicyclo[3.1.0]hexane-2-carboxamide] | ≥ 1000 nM
CCCN(C(=O)[C@@H]1[C@@H]2[C@H](CN1C(=O)[C@@H](NC(=O)C(F)(F)F)C(C)(C)C)C2(C)C)[C@H](C#N)C[C@@H]1C(=O)Nc2ccccc21 [Compound 248, (1R,2S,5S)-N-[(1S)-1-cyano-2-(2-oxoindolin-3-yl)ethyl]-3-[(2S)-3,3-dimethyl-2-[(2,2,2-trifluoroacetyl)amino]butanoyl]-6,6-dimethyl-N-propyl-3-azabicyclo[3.1.0]hexane-2-carboxamide] | ≥ 1000 nM
CC(C)(C)[C@H](NC(=O)C(F)(F)F)C(=O)N1C[C@H]2[C@@H]([C@H]1C(=O)NC(C#N)CC1C(=O)Nc3ncccc31)C2(C)C (stereo partly drawn) [Compound 249] | 500 to 1000 nM
CC(C)(C)[C@H](NC(=O)C(F)(F)F)C(=O)N1C[C@H]2[C@@H]([C@H]1C(=O)NC(C#N)CCC1C(=O)Nc3ccccc31)C2(C)C (stereo partly drawn) [Compound 250, (1R,2S,5S)—N-[1-Cyano-3-(2-oxoindolin-3-yl)propyl]-6,6-dimethyl-3-[(2S)-3,3-dimethyl-2-[(2,2,2-trifluoroacetyl)amino]butanoyl]-3-azabicyclo[3.1.0]hexane-2-carboxamide] | 500 to 1000 nM
CC(C)(C)[C@H](NC(=O)C(F)(F)F)C(=O)N1C[C@H]2[C@H]([C@H]1C(=O)N[C@H](C#N)Cn1nnc3ccccc31)C2(C)C [Compound 308, (1S,2S,5S)-N-[(1S)-2-(benzotriazol-1-yl)-1-cyano-ethyl]-3-[(2S)-3,3-dimethyl-2-[(2,2,2-trifluoroacetyl)amino]butanoyl]-6,6-dimethyl-3-azabicyclo[3.1.0]hexane-2-carboxamide] | ≥ 1000 nM
